# Measurements from patent US10112899B2 (ViiV HEALTHCARE UK LIMITED, priority 2014, dated 2018).
# System: HIV in the HTLV-1 transformed cell line MT-4
# Test: organism not typed
# Type: cell-based
# Details: MT-4 cells, luciferase/cell titer glo readout after 96 hours, 10 point dose response
Compound,"IC50 (MT4, 96 h) [nM]",IC50 [nM]
"COc1cccc(C(=O)N2Cc3c(C)c(-c4ccc(C)cc4)c([C@H](OC(C)(C)C)C(=O)O)c(C)c3C2)c1 [Example 114, (S)-2-(tert-butoxy)-2-(2-(3-methoxybenzoyl)-4,7-dimethyl-6-(p-tolyl)isoindolin-5-yl)acetic acid]",5,
"Cc1ccc(-c2c(C)c3c(c(C)c2[C@H](OC(C)(C)C)C(=O)O)CN(C(=O)c2ccccn2)C3)cc1 [Example 273, (S)-2-(tert-butoxy)-2-(4,7-dimethyl-2-picolinoyl-6-(p-tolyl)isoindolin-5-yl)acetic acid]",4,
"Cc1c(-c2c(C)c3c(c(C)c2[C@H](OC(C)(C)C)C(=O)O)CN(c2nnc(-c4cccc(F)c4)o2)C3)cc(F)c2c1CCCO2 (atropisomer, axis not shown; (M)) [Example 201, (S)-2-(tert-butoxy)-2-((M)-6-(8-fluoro-5-methylchroman-6-yl)-2-(5-(3-fluorophenyl)-1,3,4-oxadiazol-2-yl)-4,7-dimethylisoindolin-5-yl)acetic acid]",387,
"Cc1ccc(-c2c(C)c3c(c(C)c2[C@H](OC(C)(C)C)C(=O)O)CN(C(=O)c2cc(F)c(Cl)c(Cl)c2)C3)cc1 [Example 277, (S)-2-(tert-butoxy)-2-(2-(3,4-dichloro-5-fluorobenzoyl)-4,7-dimethyl-6-(p-tolyl)isoindolin-5-yl)acetic acid]",14,
"Cc1c2c(c(C)c([C@H](OC(C)(C)C)C(=O)O)c1-c1ccc3c(c1)CCCO3)CN(C(=O)N1CCC(F)(F)C1)C2 [Example 313, (S)-2-(tert-butoxy)-2-(6-(chroman-6-yl)-2-(3,3-difluoropyrrolidine-1-carbonyl)-4,7-dimethylisoindolin-5-yl)acetic acid]",4,
"Cc1ccc(-c2c(C)c3c(c(C)c2[C@H](OC(C)(C)C)C(=O)O)CN(C(=O)N2CCCC(F)(F)C2)C3)cc1 [Example 66, (2S)-2-(tert-butoxy)-2-[2-(3,3-difluoropiperidine-1-carbonyl)-4,7-dimethyl-6-(4-methylphenyl)-2,3-dihydro-1H-isoindol-5-yl]acetic acid]",6,
"Cc1c2c(c(C)c([C@H](OC(C)(C)C)C(=O)O)c1-c1ccc(Cl)cc1)CN(C(=O)CC(C)(C)C)C2 [Example 135, (S)-2-(tert-butoxy)-2-(6-(4-chlorophenyl)-2-(3,3-dimethylbutanol)-4,7-dimethylisoindolin-5-yl)acetic acid]",23,
"Cc1ccc(-c2c(C)c3c(c(C)c2[C@H](OC(C)(C)C)C(=O)O)CN(C(=O)N2CCC(C)(C)CC2)C3)cc1 [Example 84, (S)-2-(tert-butoxy)-2-(2-(4,4-dimethylpiperidine-1-carbonyl)-4,7-dimethyl-6-(p-tolyl)isoindolin-5-yl)acetic acid]",11,
"Cc1c(-c2c(C)c3c(c(C)c2[C@H](OC(C)(C)C)C(=O)O)CN(C(=O)c2cccc4c2OCC4)C3)cc(F)c2c1CCCO2 (atropisomer, axis not shown; (M)) [Example 152, (S)-2-(tert-butoxy)-2-((M)-2-(2,3-dihydrobenzofuran-7-carbonyl)-6-(8-fluoro-5-methylchroman-6-yl)-4,7-dimethylisoindolin-5-yl)acetic acid]",2,
"Cc1ccc(-c2c(C)c3c(c(C)c2[C@H](OC(C)(C)C)C(=O)O)CN(C(=O)N2CCCCCCC2)C3)cc1 [Example 65, (2S)-2-[2-(azocane-1-carbonyl)-4,7-dimethyl-6-(4-methylphenyl)-2,3-dihydro-1H-isoindol-5-yl]-2-(tert-butoxy)acetic acid]",10,
"COc1ccc(C(=O)N2Cc3c(C)c(-c4cc(F)c5c(c4C)CCCO5)c([C@H](OC(C)(C)C)C(=O)O)c(C)c3C2)c(C)c1 (atropisomer, axis not shown; (M)) [Example 286, (S)-2-(tert-butoxy)-2-((M)-6-(8-fluoro-5-methylchroman-6-yl)-2-(4-methoxy-2-methylbenzoyl)-4,7-dimethylisoindolin-5-yl)acetic acid]",11,
"Cc1ccc(-c2c(C)c3c(c(C)c2[C@H](OC(C)(C)C)C(=O)O)CN(Cc2cccc(-c4ccccc4)c2)C3)cc1 [Example 29, (S)-2-(2-([1,1′-biphenyl]-3-ylmethyl)-4,7-dimethyl-6-(p-tolyl)isoindolin-5-yl)-2-(tert-butoxy)acetic acid]",184,
"Cc1ccc(-c2c(C)c3c(c(C)c2[C@H](OC(C)(C)C)C(=O)O)CN(C(=O)C2CCCCC2)C3)cc1 [Example 107, (S)-2-(tert-butoxy)-2-(2-(cyclohexanecarbonyl)-4,7-dimethyl-6-(p-tolyl)isoindolin-5-yl)acetic acid]",7,
"Cc1ccc(-c2c(C)c3c(c(C)c2[C@H](OC(C)(C)C)C(=O)O)CN(C(=O)c2cn(C)cn2)C3)cc1 [Example 237, (S)-2-(tert-butoxy)-2-(4,7-dimethyl-2-(1-methyl-1H-imidazole-4-carbonyl)-6-(p-tolyl)isoindolin-5-yl)acetic acid]",67,
"Cc1ccc(-c2c(C)c3c(c(C)c2[C@H](OC(C)(C)C)C(=O)O)CN(C(=O)c2cccc4c2OCO4)C3)c(Cl)c1 [Example 309, (2S)-2-(2-(benzo[d][1,3]dioxole-4-carbonyl)-6-(2-chloro-4-methylphenyl)-4,7-dimethylisoindolin-5-yl)-2-(tert-butoxy)acetic acid]",4,
"Cc1c(-c2c(C)c3c(c(C)c2[C@H](OC(C)(C)C)C(=O)O)CN(C(=O)N2CCC(C)(C)C2)C3)cc(F)c2c1CCCO2 (atropisomer, axis not shown; (M)) [Example 214, (S)-2-(tert-butoxy)-2-((M)-2-(3,3-dimethylpyrrolidine-1-carbonyl)-6-(8-fluoro-5-methylchroman-6-yl)-4,7-dimethylisoindolin-5-yl)acetic acid]",3,
"Cc1ccc(C(=O)N2Cc3c(C)c(-c4cc(F)c5c(c4C)CCCO5)c([C@H](OC(C)(C)C)C(=O)O)c(C)c3C2)cc1F (atropisomer, axis not shown; (M)) [Example 144, (S)-2-(tert-butoxy)-2-((M)-2-(3-fluoro-4-methylbenzoyl)-6-(8-fluoro-5-methylchroman-6-yl)-4,7-dimethylisoindolin-5-yl)acetic acid]",5,
"Cc1ccc(-c2c(C)c3c(c(C)c2[C@H](OC(C)(C)C)C(=O)O)CN(C(=O)N2CCCC2)C3)cc1 [Example 35, (S)-2-(tert-butoxy)-2-(4,7-dimethyl-2-(pyrrolidine-1-carbonyl)-6-(p-tolyl)isoindolin-5-yl)acetic acid]",12,
"COc1cccc(C(=O)N2Cc3c(C)c(-c4ccc(C)cc4)c([C@H](OC(C)(C)C)C(=O)O)c(C)c3C2)c1C [Example 258, (S)-2-(tert-butoxy)-2-(2-(3-methoxy-2-methylbenzoyl)-4,7-dimethyl-6-(p-tolyl)isoindolin-5-yl)acetic acid]",15,
"Cc1ccc(-c2c(C)c3c(c(C)c2[C@H](OC(C)(C)C)C(=O)O)CN(C(=O)c2ccc(F)cc2)C3)cc1 [Example 254, (S)-2-(tert-butoxy)-2-(2-(4-fluorobenzoyl)-4,7-dimethyl-6-(p-tolyl)isoindolin-5-yl)acetic acid]",4,
"Cc1ccc(-c2c(C)c3c(c(C)c2[C@H](OC(C)(C)C)C(=O)O)CN(C(=O)c2cnc(-c4ccccc4)o2)C3)cc1 [Example 274, (S)-2-(tert-butoxy)-2-(4,7-dimethyl-2-(2-phenyloxazole-5-carbonyl)-6-(p-tolyl)isoindolin-5-yl)acetic acid]",297,
"Cc1ccc(-c2c(C)c3c(c(C)c2[C@H](OC(C)(C)C)C(=O)O)CN(C(=O)NCc2ccccc2)C3)cc1 [Example 34, (S)-2-(2-(benzylcarbamoyl)-4,7-dimethyl-6-(p-tolyl)isoindolin-5-yl)-2-(tert-butoxy)acetic acid]",86,
"Cc1ccc(-c2c(C)c3c(c(C)c2[C@H](OC(C)(C)C)C(=O)O)CN(Cc2cccc4ccccc24)C3)cc1 [Example 13, (S)-2-(tert-Butoxy)-2-(4,7-dimethyl-2-(naphthalen-1-ylmethyl)-6-(p-tolyl)isoindolin-5-yl)acetic acid]",44,
"Cc1ccc(-c2c(C)c3c(c(C)c2[C@H](OC(C)(C)C)C(=O)O)CN(C2CCC[C@@H](C)C2)C3)cc1 (stereo partly drawn) [Example 32, (2S)-2-(tert-butoxy)-2-(4,7-dimethyl-2-((3R)-3-methylcyclohexyl)-6-(p-tolyl)isoindolin-5-yl)acetic acid]",723,
"Cc1ccc(-c2c(C)c3c(c(C)c2[C@H](OC(C)(C)C)C(=O)O)CN(S(=O)(=O)N2CCCCC2)C3)cc1 [Example 50, (2S)-2-(tert-butoxy)-2-[4,7-dimethyl-6-(4-methylphenyl)-2-(piperidine-1-sulfonyl)-2,3-dihydro-1H-isoindol-5-yl]acetic acid]",29,
"Cc1ccc(-c2c(C)c3c(c(C)c2[C@H](OC(C)(C)C)C(=O)O)CN(C(=O)C2CCC(F)(F)C2)C3)cc1 (stereo partly drawn) [Example 113, (2S)-2-(tert-butoxy)-2-(2-(3,3-difluorocyclopentanecarbonyl)-4,7-dimethyl-6-(p-tolyl)isoindolin-5-yl)acetic acid]",10,
"Cc1ccc(-c2c(C)c3c(c(C)c2[C@H](OC(C)(C)C)C(=O)O)CN([C@@H]2CCC[C@@H](C)C2)C3)cc1 [Example 37, (2S)-2-(tert-butoxy)-2-{4,7-dimethyl-2-[(1R,3R)-3-methylcyclohexyl]-6-(4-methylphenyl)-2,3-dihydro-1H-isoindol-5-yl}acetic acid]",,723
"Cc1cc(C)cc(C(=O)N2Cc3c(C)c(-c4cc(F)c5c(c4C)CCCO5)c([C@H](OC(C)(C)C)C(=O)O)c(C)c3C2)c1 (atropisomer, axis not shown; (M)) [Example 191, (S)-2-(tert-butoxy)-2-((M)-2-(3,5-dimethylbenzoyl)-6-(8-fluoro-5-methylchroman-6-yl)-4,7-dimethylisoindolin-5-yl)acetic acid]",2,
"Cc1cccc(C(=O)N2Cc3c(C)c(-c4cc(F)c5c(c4C)CCCO5)c([C@H](OC(C)(C)C)C(=O)O)c(C)c3C2)c1C (atropisomer, axis not shown; (M)) [Example 193, (S)-2-(tert-butoxy)-2-((M)-2-(2,3-dimethylbenzoyl)-6-(8-fluoro-5-methylchroman-6-yl)-4,7-dimethylisoindolin-5-yl)acetic acid]",5,
